The test system of experiment [1] is rats subjected to volume-controlled hemorrhagic shock. The experiment in a line: Survival of rats subjected to volume-controlled hemorrhagic shock. In kind it is in vivo, rat. The following applies: 2 μmol/kg intravenous; for survival vs vehicle: last 20 min of hemorrhage. How it is done:
Survival of rats subjected to volume-controlled hemorrhagic shock. Following surgical preparation and a 5-min stabilization period to obtain baseline readings, rats were subjected to hemorrhagic shock. Bleeding was carried out in 2 phases.
Initially, 21 ml/kg of blood was withdrawn over 20 min. Immediately thereafter, an additional 12.5 ml/kg of blood was withdrawn over 40 min. Thus, hemorrhage occurred over a total period of 60 min and the total blood loss was 33.5 ml/kg or approximately 55% of the total blood volume. Rats were randomly assigned to receive XJB-5-131 (2 μmol/kg) or its vehicle, a 33:67 (v/v) mixture of DMSO and normal saline. XJB-5-131 solution or vehicle alone was administered as a continuous infusion during the last 20 min of the hemorrhage period. The total volume of fluid infused was 2.8 ml/kg and it was administered intravenously using a syringe pump (KD100, KD Scientific, New Hope, Pa.). […] At the end of the 6 hour observation period, animals that were still alive were euthanized with an overdose of KCl.
A total of sixteen rats were tested in this study. Rats were treated with 2.8 ml/kg of vehicle or the same volume of XJB-5-131 solution during the final 20 min of the bleeding protocol. The total dose of XJB-5-131 infused was 2 μmol/kg. Following profound hemorrhagic shock consistent with the protocol described above for the prior studies, thirteen survived for at least 60 min and received the full dose of either XJB-5-131 solution or the vehicle, a 33:67 (v/v) mixture of DMSO and normal saline. […] None of the between-group differences were statistically significant.

Experiment [2] concerns MEF cells from Ercc1−/− mouse embryos. The experiment in a line: Senescence, DNA damage and apoptosis in Ercc1−/− MEF cells under ambient oxygen. It counts as cell-based. The following applies: 500 nM. The procedure:
Graphs showing weight over time of treated, untreated and control animals are shown in FIG. 36A-B. To assess the impact of XJB-5-131 at a cellular level, a number of experiments were carried out using mouse embryonic fibroblasts (“MEF”) cells harvested from Ercc1^−/− mouse embryos.

The structures appear in SMILES notation.

As to `CC(C)C[C@@H](/C=C/[C@H](Cc1ccccc1)C(=O)N1CCC[C@H]1C(=O)N[C@H](C(=O)N[C@@H](CCCNC(=O)OCc1ccccc1)C(=O)NC1CC(C)(C)N([O])C(C)(C)C1)C(C)C)NC(=O)OC(C)(C)C` [XJB-5-131], in experiment [1], the “rats surviving longer than 3 hours after completion of the hemorrhage protocol” value is given as “Three of the six”, the “rats surviving the whole 6 hour post-bleeding observation period” value is listed as “one” and the survival vs vehicle result is “survived significantly longer”. Moreover, the survival vs vehicle result in experiment [1] (listed as XJR-5-131) is “significantly prolonged the survival”. Further, in experiment [2], the SA-β galactosidase staining entry is “notably less”, the apoptosis entry was “did not reduce the amount of apoptosis” and the γH2AX foci result is given as “reduce the number of γH2AX foci”.

The values above are taken from patent US9890192B2, “Targeted nitroxide agents” (University of Pittsburgh—of the Commonwealth System of …, priority 2008, dated 2018).
